{"source": "ChEMBL document CHEMBL1155353", "about": "“Isatin derivatives, a novel class of transthyretin fibrillogenesis inhibitors” (Bioorg Med Chem Lett, 2009)", "key": {"Transthyretin [1]": {"biological_target": "T1, Transthyretin (Homo sapiens, UniProt P02766)", "assay": "Inhibition of TTR mediated fibrillogenesis assessed as acid-induced protein aggregation turbidity after 1.5 hrs by turbidimetric assay"}, "Transthyretin [2]": {"biological_target": "T1, Transthyretin", "assay": "Inhibition of TTR mediated fibrillogenesis assessed as acid-induced protein aggregation turbidity after 1.5 hrs by turbidimetric assay relative to control", "design": "concentration or dose not given beside the values"}, "Transthyretin [3]": {"biological_target": "T1, Transthyretin", "assay": "Displacement of [125I]thyroxin from TTR"}, "Transthyretin [4]": {"biological_target": "T1, Transthyretin", "assay": "Inhibition of TTR mediated fibrillogenesis assessed as acid-induced protein aggregation turbidity at […] after 1.5 hrs by turbidimetric assay relative to control", "design": "scale not given: the % may be the effect or the level left"}, "Transthyretin [5]": {"biological_target": "T1, Transthyretin", "assay": "Binding affinity to TTR at 40 uM by isothermal titration calorimetry"}}, "note": "pIC50: −log10 of the molar value. Activity calls are given as the source filed them. No cut-off for these calls is given here."}
{"compound": "COc1ccc(/N=C2\\C(=O)N(C)c3ccccc32)cc1", "values": [{"measurement": "pIC50", "setting": "Transthyretin [1]", "value": 5.11}, {"measurement": "Activity", "setting": "Transthyretin [2]", "value": 81, "unit": "%"}, {"measurement": "Activity", "setting": "Transthyretin [3]", "value": "inactive"}]}
{"compound": "COc1ccc(/N=C2/C(=O)Nc3ccccc32)cc1", "values": [{"measurement": "pIC50", "setting": "Transthyretin [1]", "value": 5.09}]}
{"compound": "Cc1ccc2c(c1)/C(=N/c1ccc(I)cc1)C(=O)N2", "values": [{"measurement": "pIC50", "setting": "Transthyretin [1]", "value": "< 4.30"}, {"measurement": "Activity", "setting": "Transthyretin [2]", "value": "inactive"}, {"measurement": "Activity", "setting": "Transthyretin [4]", "value": 7, "unit": "%"}, {"measurement": "Activity", "setting": "Transthyretin [3]", "value": "inactive"}]}
{"compound": "O=C1Nc2ccccc2C1=O", "note": "[ISATIN]", "values": [{"measurement": "pIC50", "setting": "Transthyretin [1]", "value": "< 4.30"}, {"measurement": "Activity", "setting": "Transthyretin [4]", "value": 24, "unit": "%"}, {"measurement": "Activity", "setting": "Transthyretin [3]", "value": "inactive"}]}
{"compound": "O=C1Nc2ccc(I)cc2/C1=N/c1ccc(I)cc1", "values": [{"measurement": "pIC50", "setting": "Transthyretin [1]", "value": "< 4.30"}, {"measurement": "Activity", "setting": "Transthyretin [2]", "value": 23, "unit": "%"}, {"measurement": "Activity", "setting": "Transthyretin [3]", "value": "inactive"}]}
{"compound": "CN1C(=O)/C(=N\\c2ccccc2)c2ccccc21", "values": [{"measurement": "pIC50", "setting": "Transthyretin [1]", "value": 4.96}, {"measurement": "Activity", "setting": "Transthyretin [2]", "value": 77, "unit": "%"}, {"measurement": "Activity", "setting": "Transthyretin [3]", "value": "inactive"}]}
{"compound": "CN1C(=O)C(=O)c2ccccc21", "values": [{"measurement": "pIC50", "setting": "Transthyretin [1]", "value": 5.20}, {"measurement": "Activity", "setting": "Transthyretin [2]", "value": 100, "unit": "%"}, {"measurement": "Activity", "setting": "Transthyretin [3]", "value": "inactive"}]}
{"compound": "COc1ccc(/N=C2\\C(=O)Nc3ccc([N+](=O)[O-])cc32)cc1", "values": [{"measurement": "pIC50", "setting": "Transthyretin [1]", "value": "< 4.30"}, {"measurement": "Activity", "setting": "Transthyretin [2]", "value": 24, "unit": "%"}, {"measurement": "Activity", "setting": "Transthyretin [3]", "value": "inactive"}]}
{"compound": "CN1C(=O)/C(=N\\c2ccc(I)cc2)c2ccccc21", "values": [{"measurement": "pIC50", "setting": "Transthyretin [1]", "value": "< 4.30"}, {"measurement": "Activity", "setting": "Transthyretin [2]", "value": 0, "unit": "%"}, {"measurement": "Activity", "setting": "Transthyretin [3]", "value": "inactive"}]}
{"compound": "Oc1c(I)cc(I)cc1I", "note": "[TRIIODOPHENOL]", "values": [{"measurement": "pIC50", "setting": "Transthyretin [1]", "value": 5.49}, {"measurement": "Activity", "setting": "Transthyretin [2]", "value": 80, "unit": "%"}, {"measurement": "Activity", "setting": "Transthyretin [3]", "value": "inactive"}]}
{"compound": "COc1ccc(/N=C2\\C(=O)Nc3ccc(C)cc32)cc1", "values": [{"measurement": "pIC50", "setting": "Transthyretin [1]", "value": "< 4.30"}, {"measurement": "Activity", "setting": "Transthyretin [2]", "value": 32, "unit": "%"}, {"measurement": "Activity", "setting": "Transthyretin [3]", "value": "inactive"}]}
{"compound": "CN1C(=O)/C(=N\\c2ccc([N+](=O)[O-])cc2)c2ccccc21", "values": [{"measurement": "pIC50", "setting": "Transthyretin [1]", "value": 5.20}, {"measurement": "Activity", "setting": "Transthyretin [2]", "value": 86, "unit": "%"}, {"measurement": "Activity", "setting": "Transthyretin [3]", "value": "inactive"}]}
{"compound": "O=C1Nc2ccc(Br)cc2/C1=N/c1ccc(I)cc1", "values": [{"measurement": "pIC50", "setting": "Transthyretin [1]", "value": "< 4.30"}, {"measurement": "Activity", "setting": "Transthyretin [2]", "value": 16, "unit": "%"}, {"measurement": "Activity", "setting": "Transthyretin [3]", "value": "inactive"}]}
{"compound": "O=C1Nc2ccccc2/C1=N/c1ccc(I)cc1", "values": [{"measurement": "pIC50", "setting": "Transthyretin [1]", "value": "< 4.30"}, {"measurement": "Activity", "setting": "Transthyretin [2]", "value": 0, "unit": "%"}, {"measurement": "Activity", "setting": "Transthyretin [3]", "value": "inactive"}]}
{"compound": "O=C1Nc2ccccc2/C1=N/c1ccc([N+](=O)[O-])cc1", "values": [{"measurement": "Activity", "setting": "Transthyretin [5]", "value": "inactive"}, {"measurement": "pIC50", "setting": "Transthyretin [1]", "value": 5.55}, {"measurement": "Activity", "setting": "Transthyretin [2]", "value": 90, "unit": "%"}, {"measurement": "Activity", "setting": "Transthyretin [3]", "value": "inactive"}]}
{"compound": "COc1ccc(/N=C2\\C(=O)Nc3ccccc32)cc1", "values": [{"measurement": "Activity", "setting": "Transthyretin [2]", "value": 100, "unit": "%"}, {"measurement": "Activity", "setting": "Transthyretin [3]", "value": "inactive"}]}
{"compound": "Cc1ccc(/N=C2\\C(=O)Nc3ccccc32)cc1", "values": [{"measurement": "pIC50", "setting": "Transthyretin [1]", "value": "< 4.30"}, {"measurement": "Activity", "setting": "Transthyretin [4]", "value": 14, "unit": "%"}, {"measurement": "Activity", "setting": "Transthyretin [3]", "value": "inactive"}]}
{"compound": "COc1ccc(/N=C2\\C(=O)Nc3ccc(I)cc32)cc1", "values": [{"measurement": "pIC50", "setting": "Transthyretin [1]", "value": "< 4.30"}, {"measurement": "Activity", "setting": "Transthyretin [2]", "value": 42, "unit": "%"}, {"measurement": "Activity", "setting": "Transthyretin [3]", "value": "inactive"}]}
{"compound": "N[C@@H](Cc1cc(I)c(Oc2cc(I)c(O)c(I)c2)c(I)c1)C(=O)O", "values": [{"measurement": "Activity", "setting": "Transthyretin [2]", "value": 95, "unit": "%"}, {"measurement": "Activity", "setting": "Transthyretin [3]", "value": "inactive"}]}
{"compound": "Cc1ccc(/N=C2\\C(=O)N(C)c3ccccc32)cc1", "values": [{"measurement": "pIC50", "setting": "Transthyretin [1]", "value": 5.20}, {"measurement": "Activity", "setting": "Transthyretin [2]", "value": 8.6, "unit": "%"}, {"measurement": "Activity", "setting": "Transthyretin [3]", "value": "inactive"}]}
{"compound": "O=C1Nc2ccc([N+](=O)[O-])cc2/C1=N/c1ccc(I)cc1", "values": [{"measurement": "pIC50", "setting": "Transthyretin [1]", "value": "< 4.30"}, {"measurement": "Activity", "setting": "Transthyretin [2]", "value": 7, "unit": "%"}, {"measurement": "Activity", "setting": "Transthyretin [4]", "value": 7, "unit": "%"}, {"measurement": "Activity", "setting": "Transthyretin [3]", "value": "inactive"}]}
{"compound": "COc1ccc(/N=C2\\C(=O)Nc3ccc(Br)cc32)cc1", "values": [{"measurement": "pIC50", "setting": "Transthyretin [1]", "value": "< 4.30"}, {"measurement": "Activity", "setting": "Transthyretin [2]", "value": 48, "unit": "%"}, {"measurement": "Activity", "setting": "Transthyretin [3]", "value": "inactive"}]}
{"compound": "O=C1Nc2ccc(I)cc2/C1=N/c1ccccc1", "values": [{"measurement": "pIC50", "setting": "Transthyretin [1]", "value": "< 4.30"}, {"measurement": "Activity", "setting": "Transthyretin [2]", "value": 1, "unit": "%"}, {"measurement": "Activity", "setting": "Transthyretin [3]", "value": "inactive"}]}
